Measured values reported in ChEMBL document CHEMBL1139568, “Carbonic anhydrase inhibitors. Inhibition of cytosolic/tumor-associated carbonic anhydrase isozymes I, II, IX, and XII with Schiff's bases incorporating chromone and aromatic sulfonamide moieties, and their zinc complexes” (Bioorg Med Chem Lett, 2005).

Legend:
Carbonic anhydrase 9 = Carbonic anhydrase 9 (Homo sapiens, UniProt Q16790)
Description: Inhibition constant against human carbonic anhydrase IX

Carbonic anhydrase 2 = Carbonic anhydrase 2 (Homo sapiens, UniProt P00918)
Description: Inhibition constant against human carbonic anhydrase II

Carbonic anhydrase 1 = Carbonic anhydrase 1 (Homo sapiens, UniProt P00915)
Description: Inhibition constant against human carbonic anhydrase I

Carbonic anhydrase 12 = Carbonic anhydrase 12 (Homo sapiens, UniProt O43570)
Description: Inhibition constant against human carbonic anhydrase XII

[1] = tested as the Zn salt or complex

Sequence of Carbonic anhydrase 1 (P00915 whole entry): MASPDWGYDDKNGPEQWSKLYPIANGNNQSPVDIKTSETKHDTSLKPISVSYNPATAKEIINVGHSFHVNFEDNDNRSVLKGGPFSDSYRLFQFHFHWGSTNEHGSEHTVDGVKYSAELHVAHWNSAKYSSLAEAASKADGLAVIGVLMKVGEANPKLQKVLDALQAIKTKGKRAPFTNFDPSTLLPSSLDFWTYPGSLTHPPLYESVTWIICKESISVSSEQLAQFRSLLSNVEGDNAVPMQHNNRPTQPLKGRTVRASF
Sequence of Carbonic anhydrase 12 (O43570 whole entry): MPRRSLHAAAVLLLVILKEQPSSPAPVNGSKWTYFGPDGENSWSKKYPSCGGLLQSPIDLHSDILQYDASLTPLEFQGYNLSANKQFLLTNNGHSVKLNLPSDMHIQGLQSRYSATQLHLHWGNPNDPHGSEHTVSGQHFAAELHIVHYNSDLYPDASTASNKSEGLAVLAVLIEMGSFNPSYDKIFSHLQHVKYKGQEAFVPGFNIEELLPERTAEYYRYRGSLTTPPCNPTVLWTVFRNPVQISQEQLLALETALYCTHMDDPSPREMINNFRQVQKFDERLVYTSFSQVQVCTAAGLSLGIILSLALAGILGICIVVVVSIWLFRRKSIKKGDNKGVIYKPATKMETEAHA

Cc1ccc2occ(/C=N/c3ccc(S(=O)(=O)N=C(N)N)cc3)c(=O)c2c1
Ki (Carbonic anhydrase 9): > 1000 nM | Ki (Carbonic anhydrase 2): > 1000 nM | Ki (Carbonic anhydrase 1): > 1000 nM | Ki (Carbonic anhydrase 12): > 1000 nM

Cc1ccc2occ(/C=N/c3cc(C(F)(F)F)c(S(N)(=O)=O)cc3S(N)(=O)=O)c(=O)c2c1
Ki (Carbonic anhydrase 9): 32 nM

Cc1ccc2occ(/C=N/CCc3ccc(S(N)(=O)=O)cc3)c(=O)c2c1 [listing 1 of 2 here]
Ki (Carbonic anhydrase 9): 37 nM

NS(=O)(=O)c1ccc(C/N=C/c2coc3ccccc3c2=O)cc1
Ki (Carbonic anhydrase 9): 32 nM

Cc1ccc2occ(/C=N/c3ccc(S(N)(=O)=O)cc3)c(=O)c2c1 [listing 1 of 2 here]
Ki (Carbonic anhydrase 9; [1]): 6.8 nM

Cc1ccc2occ(/C=N/CCc3ccc(S(N)(=O)=O)cc3)c(=O)c2c1 [listing 2 of 2 here]
Ki (Carbonic anhydrase 9; [1]): 8.2 nM

NS(=O)(=O)c1ccc(NCc2coc3ccccc3c2=O)cc1
Ki (Carbonic anhydrase 9; [1]): 10 nM

NS(=O)(=O)c1ccc(CNCc2coc3ccccc3c2=O)cc1
Ki (Carbonic anhydrase 9; [1]): 8.1 nM

NS(=O)(=O)c1ccc(CCNCc2coc3ccccc3c2=O)cc1
Ki (Carbonic anhydrase 9; [1]): 7.3 nM

Cc1ccc2occ(CNc3ccc(S(N)(=O)=O)cc3)c(=O)c2c1
Ki (Carbonic anhydrase 9; [1]): 15 nM

Cc1ccc2occ(CNCc3ccc(S(N)(=O)=O)cc3)c(=O)c2c1
Ki (Carbonic anhydrase 9; [1]): 14 nM

Cc1ccc2occ(CNCCc3ccc(S(N)(=O)=O)cc3)c(=O)c2c1
Ki (Carbonic anhydrase 9; [1]): 12 nM

N=C(N)NS(=O)(=O)c1ccc(/N=C/c2coc3ccccc3c2=O)cc1
Ki (Carbonic anhydrase 9): > 1000 nM | Ki (Carbonic anhydrase 2): > 1000 nM | Ki (Carbonic anhydrase 1): > 1000 nM | Ki (Carbonic anhydrase 12): > 1000 nM

NS(=O)(=O)c1ccc(CC/N=C/c2coc3ccccc3c2=O)cc1
Ki (Carbonic anhydrase 9): 26 nM

Cc1ccc2occ(/C=N/c3ccc(S(N)(=O)=O)cc3)c(=O)c2c1 [listing 2 of 2 here]
Ki (Carbonic anhydrase 9): 48 nM

NS(=O)(=O)c1ccc(C/N=C/c2coc3ccccc3c2=O)cc1 (stereo in doubt; 20)
Ki (Carbonic anhydrase 9; [1]): > 1000 nM

NS(=O)(=O)c1ccc(C/N=C/c2coc3ccccc3c2=O)cc1 (stereo in doubt; 21)
Ki (Carbonic anhydrase 9; [1]): 6.3 nM
